Ends that are not written are not given here.
Legend:
Assay type in all cases: cell-based, Candida albicans (ATCC 90028)
[1] = system: planktonic C. albicans cells; assay: Resazurin reduction / viability assay on planktonic C. albicans cells (broth microdilution, CLSI M27-A3); conditions: for Antimycrobial Activity against Planktonic C. albicans Cells [%] at 20 µg/mL: in comparison to Pom-1 (= 100%), 20 µg/mL peptide; for inhibition of cell viability: planktonic C. albicans, 2.5 × 10^3 cells per well, 20 µg/mL, 24 h, 37 °C, RPMI-1640, resazurin fluorescence, vs untreated cells, triplicate
Description: The viability of treated C. albicans cells with Pom-1A to F was determined according to the Clinical and Laboratory Standards Institute guidelines (M27-A3) for the broth microdilution assay. For this, 2.5 × 10^3 yeast cells were incubated in 200 µL of RPMI-1640 medium (supplemented with L-glutamine) in the presence of various concentrations of Pom-1A to F (2.5–20 µg/mL) in flat-bottomed polystyrene microtiter plates with 96 wells (Sarstedt AG and Co. KG, Nümbrecht, Germany) at 37 °C with shaking at 900 rpm on an Eppendorf shaker. Quantitation of viable yeast cells was performed using a Resazurin-reduction-Assay. For this, yeast cells were incubated with 20 µL of 0.15 mg/mL resazurin solution for 2 h. During this time, the viable cells were able to reduce the resazurin to resorufin. […] For this purpose, a dilution series was prepared for each sample in RPMI 1640 medium and 1 µL was added to Sabouraud agar plates, which were then incubated for 24 h at 37 °C, respectively. To determine the antifungal effect of the peptide derivatives on planktonic C. albicans cells, different concentrations (2.5–20 µg/mL) of the peptides were applied to fixed cell numbers (2.5 × 10^3 cells per well) and were incubated for 24 h in a suspension microtiter plate.

C. albicans biofilm [2] = system: C. albicans biofilm; parameters: semi inhibitory concentration (IC50) of biofilm formation / IC50 Values against Biofilm Formation: unit not given here; conditions: for semi inhibitory concentration (IC50) of biofilm formation / IC50 Values against Biofilm Formation: C. albicans, crystal violet, 24 h, 37 °C, 2.5–20 µg/mL, Hill fit, triplicate; for semi inhibitory concentration (IC50) of biofilm formation: Figure 4A; for IC50 Values against Biofilm Formation: without agitation, Table 1 (rounded); for Antimicrobial Activity against C. albicans Biofilm [%] Based on IC50 Values: in comparison to Pom-1 (= 100%), from IC50 values
Description: The analysis of the antifungal effect of the peptides on biofilm followed the same conditions as described previously. In brief, 2.5 × 10^3 yeast cells were incubated in 200 µL RPMI-1640 medium with L-glutamine in flat-bottomed polystyrene microtiter plates with 96 wells (Sarstedt AG and Co. KG, Nümbrecht, Germany) with the respective peptides at different concentrations (2.5–20 µg/mL) for 24 h at 37 °C, but without agitation. The quantification of the biofilm took place due to a crystal violet assay, which was originally developed by George O’ Toole for bacteria and was adapted for Candida biofilms. For this, the planktonic phase in the wells was removed and the biofilms were washed twice with 200 µL of demineralized water. Subsequently, the cells in the biofilm were stained for 15 min with 200 µL of a 0.1% (w/v) crystal violet solution. The solution was then removed again and the stained cells were washed twice with 200 µL of demineralized water. Then, the biofilms in the microtiter plate were dried for 24 h at 25 °C. These were then mixed with 200 µL of 30% acetic acid. After 15 min, the stained solution was transferred to a new microtiter plate and the absorbance at 560 nm was measured using a Tecan infinite F200 microplate reader. The data obtained were then graphically identified using a Hill non-linear dose-response equation and the semi-inhibitory concentration (IC50) was determined, at which 50% of the biofilm was not formed compared to the untreated control.
In order to evaluate the potential of the novel Pom-1A-F peptides, the well established crystal violet assay for microbial cultures in microtiter plates was performed to quantify the biomass formed.

C. albicans biofilm [3] = assay: Microscopic analysis of treated C. albicans biofilms; conditions: 20 µg/mL, 24 h at 37 °C, transmitted light, compared with untreated and Pom-1 control biofilms
Description: C. albicans biofilms were treated with Pom-1, and its derivatives in comparison to an untreated bifilm control (Figure 4B).
Figure 4 Antifungal activity of Pom-1A to F towards C. albicans biofilms. (A) Determined dose-dependent effect of Pom-1 derivatives on biofilm mass by crystal violet assay with fluconazole and Pom-1 as the control agent. All experiments were performed in triplicate and error bars indicate standard deviations. (B) Microscopic analysis using a Leica DMi8 coded (Leica Microsystems CMS GmbH, Wetzlar, Germany) microscope) of untreated C. albicans biofilm and biofilm treated with Pom-1 and its derivatives (20 µg/mL) after 24 h of incubation at 37 °C under transmitted light. TEXT PRINTED IN THE PICTURE: (A) Pom-1A: IC50: 0.9555 | (A) Pom-1B: IC50: 0.008353 | (A) Pom-1C: IC50: 0.08687 | (A) Pom-1D: IC50: 4.930e-032 | (A) Pom-1E: IC50: 2.893 | (A) Pom-1F: IC50: 0.1570 DOUBTS OF THE COPYIST ABOUT THIS PICTURE: Pom-1A, IC50: small print, 0.9555 could be 0.9535 or 0.9556 / Pom-1B, IC50: small print, 0.008353 digits 8/3/5 not certain / Pom-1C, IC50: small print, 0.08687 digits 8/6 not certain / Pom-1D, IC50: small print, 4.930e-032 digits 9/3 not certain / Pom-1E, IC50: small print, 2.893 digits 8/9/3 not certain / Pom-1F, IC50: small print, 0.1570 digit 5 not certain

[4] = system: C. albicans planktonic cells; assay: Plate spot assay (colony formation after treatment of planktonic cells); conditions: after 24 h incubation with peptide (2.5–20 µg/mL), dilutions spotted on Sabouraud agar, further 24 h at 37 °C
Description: The viability of treated C. albicans cells with Pom-1A to F was determined according to the Clinical and Laboratory Standards Institute guidelines (M27-A3) for the broth microdilution assay. For this, 2.5 × 10^3 yeast cells were incubated in 200 µL of RPMI-1640 medium (supplemented with L-glutamine) in the presence of various concentrations of Pom-1A to F (2.5–20 µg/mL) in flat-bottomed polystyrene microtiter plates with 96 wells (Sarstedt AG and Co. KG, Nümbrecht, Germany) at 37 °C with shaking at 900 rpm on an Eppendorf shaker. Quantitation of viable yeast cells was performed using a Resazurin-reduction-Assay. For this, yeast cells were incubated with 20 µL of 0.15 mg/mL resazurin solution for 2 h. During this time, the viable cells were able to reduce the resazurin to resorufin. […] The data obtained were subsequently identified in a Hill nonlinear dose-response equation and the semi-inhibitory concentration (IC50) could be determined, at which the cell viability was reduced by 50% compared to the untreated control. In addition, after incubation, 1 µL cell suspension was taken from each well of the microtiter plate to visually confirm the graphical results in a plate spot assay. For this purpose, a dilution series was prepared for each sample in RPMI 1640 medium and 1 µL was added to Sabouraud agar plates, which were then incubated for 24 h at 37 °C, respectively.
For this purpose, 1 µL cell suspension was taken from each well before adding the resazurin solution from the suspension microtiter plate. This sample was then diluted and was added to a Sabourand agar plate, which was then incubated for an additional 24 h for colony formation.

Row | Compound | Antimycrobial Activity against Planktonic C. albicans Cells [%] at 20 µg/mL [1] [%] | semi inhibitory concentration (IC50) of biofilm formation (C. albicans biofilm [2]) | IC50 Values against Biofilm Formation (C. albicans biofilm [2]) | Antimicrobial Activity against C. albicans Biofilm [%] Based on IC50 Values (C. albicans biofilm [2]) [%] | biofilm cell density / surface coverage by microscopy (C. albicans biofilm [3]) | colony formation in plate spot assay [4] | inhibition of cell viability [1]
1 | AGSIAWAIGSGLFGGAKLIKIKKY [Pom-1C] | 100 | 0.08687 | 0.08 | 4750 | – | – | –
2 | H-KCAGSIAWAIGSGLFGGAKLIKIKKYIAELGGLQ-OH [Pom-1] | 100 | – | 3.8 | 100 | significant reduction | – | –
3 | IGSGLFGGAKLIKIKKYIA [Pom-1D] | 97 | – | – | – | – | colony formation decreased with the increase of peptide concentrations | –
4 | KCAGSIAWAIGSGLFGGAKLIKIKK [Pom-1E] | 153 | 2.893 | 2.89 | 131 | slightly higher surface coverage | – | –
5 | KCAGSIAWAIGSGLFGGAKLIKIKKY [Pom-1B] | 160 | 0.008353 | 0.008 | 47500 | – | colony formation decreased with the increase of peptide concentrations | up to 70%
6 | IGSGLFGGAKLIKIKKYI [Pom-1A] | 133 | 0.9555 | 0.95 | 400 | – | colony formation decreased with the increase of peptide concentrations | –
7 | OC(Cn1cncn1)(Cn1cncn1)c1ccc(F)cc1F [fluconazole, reference compound] | – | – | – | – | – | – | up to 70%
8 | AIGSGLFGGAKLIKIKKYI [Pom-1F] | 82 | 0.1570 | 0.16 | 2375 | slightly higher surface coverage | – | –
